# Source: patent US20090227533A1, “miR-34 Regulated Genes and Pathways as Targets for Therapeutic Intervention” (priority 2007, published 2009)
# Assays:
# [1] = system: lung cancer cells A549, H522, H596, Calu-3, HCC2935, H1650, H460, and H226; assay: Alamar Blue proliferation assay, average over eight lung cancer cell lines; type: cell-based, human
# Description: The inventors assessed the therapeutic effect of hsa-miR-34a for lung cancer by using eight individual lung cancer cell lines. To measure cellular proliferation of lung cancer cells, the following non-small cell lung cancer (NSCLC) cells were used: cells derived from lung adenocarcinoma (A549, H522, Calu-3, HCC2935), cells derived from lung squamous cell carcinoma (H226), cell derived from lung adenosquamous cell carcinoma (H596), cells derived from lung bronchioalveolar carcinoma (H1650), and cells derived from lung large cell carcinoma (H460). Synthetic hsa-miR-34a (Pre-miR™-hsa-miR-34a, Ambion cat. no. AM17100) or negative control (NC) miRNA (Pre-miR™ microRNA Precursor Molecule-Negative Control #2; Ambion cat. no. AM17111) was delivered via lipid-based transfection into A549, H522, H596, Calu-3, HCC2935, H1650, H460 cells and via electroporation into H226 cells.
# Lipid-based reverse transfections were carried out in triplicate according to a published protocol (Ovcharenko et al., 2005) and the following parameters: cells (5,000-12,000 per 96 well), 0.1-0.2 μl Lipofectamine™ 2000 (cat. no. 11668-019, Invitrogen Corp., Carlsbad, Calif., USA) in 20 μl OptiMEM (Invitrogen), 30 nM final concentration of miRNA in 100 μl. […]
# [2] = system: PPC-1 tumors; assay: Histology and immunohistochemistry (Ki-67, caspase 3) of xenograft tumors; type: in vivo, NOD/SCID mice
# Protocol: To gain further insight into the biological status of these cells, immunohistochemistry analyses specific for the proliferation marker Ki-67, as well as caspase 3, an indicator of apoptosis were performed.
# [3] = system: leukemic T cells (Jurkat); conditions: cited from earlier work
# [4] = system: PPC-1 prostate cancer xenograft; assay: Tumor growth of human prostate cancer xenograft; type: in vivo, NOD/SCID mice
# Protocol: Therefore, hsa-miR-34a is likely to interfere with prostate tumor growth in the animal. To explore this possibility, the therapeutic potential of synthetic hsa-miR-34a miRNA was evaluated in the animal using the PPC-1 human prostate cancer xenograft. 5×10^6 PPC-1 cells per animal were electroporated with 1.6 μM synthetic hsa-miR-34a or negative control miRNA (Pre-miR™-hsa-miR-34a, Ambion cat. no. AM17100; NC, Pre-miR™ microRNA Precursor Molecule-Negative Control #2, Ambion cat. no. AM17111), mixed with BD Matrigel™, (BD Biosciences; San Jose, Calif., USA; cat. no. 356237) in a 1:1 ratio and implanted subcutaneously into the lower back of NOD/SCID mice (Charles River Laboratories, Inc.; Wilmington, Mass., USA). A group of 7 mice was injected with hsa-miR-34a treated PPC-1 cells, and a group of 7 animals was injected with PPC-1 cells treated with negative control miRNA. To maintain steady levels of miRNA, 6.25 μg of each hsa-miR-34a or negative control miRNA conjugated with the lipid-based siPORT™ amine delivery agent (Ambion, Austin, Tex.; cat. no. AM4502) were repeatedly administered on days 7, 13, 20, and 25 via intra-tumoral injections. Given an average mouse weight of 20 g, this dose equals 0.3125 mg/kg. Tumor growth was monitored by taking caliper measurements every 1-2 days for 32 days. Tumor volumes were calculated using the formula, Volume=length×width×width/2, in which the length is greater than the width, and plotted over time (FIG. 7). Standard deviations are shown in the graph. All data points had p values<0.01. p values were as low as 1.86×10^−9 for data obtained on day 22, indicating statistical significance.
# [5] = system: basal cell carcinoma cells (TE354T); conditions: cited from earlier work
# [6] = areas with viable cells in treated PPC-1 tumors
substance,measurement,setting,value
"hsa-miR-34a: synthetic miRNA; mature sequence UGGCAGUGUCUUAGCUGGUUGUU (MIMAT0000255; SEQ ID NO:1) (synthetic miRNA, chemistry not given here)",average inhibition of cellular proliferation,"[1]; average over eight lung cancer cell lines, relative to negative control miRNA",25.30%
same,growth-inhibitory activity compared with etoposide,[1]; lung cancer cell lines,comparable to that of etoposide at concentrations ≧10 μM
same,tumor histology (hematoxylin and eosin),[2]; PPC-1 tumors,consisted mostly of matrigel with cellular debris and sparsely distributed cells
same,Ki-67 (proliferation marker) immunohistochemistry,[2]; [6],reduced levels
same,caspase 3 (apoptosis indicator) immunohistochemistry,[2]; [6],increased levels
same,proliferation,[3],inhibits the proliferation
same,average tumor volume,"[4]; day 32, cells electroporated with 1.6 μM, then 6.25 μg intratumoral on days 7, 13, 20, 25, n=7",151 mm^3
same,effect of each single administration on tumor volumes,"[4]; mouse, in vivo",acute regression of tumor volumes
same,tumor growth of PPC-1 xenograft,[4]; repeated dosing,blocked tumor growth
same,proliferation,[5],inhibits the proliferation
